Non-standard residues stand in square brackets, D forms with d. Residues, ends and D or L forms follow the SMILES beside them. No end group written: not given here. *: point of attachment. Palmitoyl = CCCCCCCCCCCCCCCC(=O)*
Assays:
[1] = biological target: T1, sSema4D (Mus musculus, UniProt O09126); experiment: Reduction of sSema4D concentration in endothelial cell culture medium (ELISA); type: cell-based; conditions: for sSema4D concentration: medium with 1600 ng/mL sSema4D, FH 20 μM, BMA-12 2 μg/μL; for sustained reduction of sSema4D concentration: added to endothelial cells, 12 to 48 h
T1 construct: the free Sema4D protein after enzyme cleavage of Sema4D; purchased R&D Systems
T1 sequence (O09126 24-733): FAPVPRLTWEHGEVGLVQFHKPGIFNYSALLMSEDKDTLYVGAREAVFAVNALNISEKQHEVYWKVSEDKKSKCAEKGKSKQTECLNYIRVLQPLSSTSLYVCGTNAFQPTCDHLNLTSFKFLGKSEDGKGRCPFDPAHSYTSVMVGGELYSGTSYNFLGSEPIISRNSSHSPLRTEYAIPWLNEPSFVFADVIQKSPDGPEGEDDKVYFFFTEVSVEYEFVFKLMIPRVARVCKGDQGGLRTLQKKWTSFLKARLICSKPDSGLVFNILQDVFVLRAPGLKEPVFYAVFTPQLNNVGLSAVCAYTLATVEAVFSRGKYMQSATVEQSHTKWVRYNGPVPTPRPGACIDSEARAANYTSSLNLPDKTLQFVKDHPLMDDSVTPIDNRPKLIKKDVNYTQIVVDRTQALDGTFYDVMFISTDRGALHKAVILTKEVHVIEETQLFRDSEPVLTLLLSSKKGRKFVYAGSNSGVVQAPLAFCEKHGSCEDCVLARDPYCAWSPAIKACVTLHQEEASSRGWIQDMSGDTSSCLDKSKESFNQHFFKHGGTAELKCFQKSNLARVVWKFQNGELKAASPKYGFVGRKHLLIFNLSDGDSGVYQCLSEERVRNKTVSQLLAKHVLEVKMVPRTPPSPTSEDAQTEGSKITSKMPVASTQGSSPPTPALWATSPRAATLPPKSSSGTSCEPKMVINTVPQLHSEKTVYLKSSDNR
Procedure: Endothelial cells were uniformly seeded in 6-well cell culture plates and cultured in a 5% CO2 incubator at 37° C. for 24 h. The nano small peptides FH, FG, DMSO, and Sema4D neutralizing antibody (BMA-12) were added to the medium (the concentration of sSema4D in the medium was 1600 ng/mL) to ensure that the final concentration of FH and FG was 20 μM, and the final concentration of the sSema4D neutralizing antibody (BMA-12) was 2 μg/μL, an equal volume of DMSO was then added as a control, and the culture plates were cultured in an incubator for 12, 24, 36, and 48 h, respectively. The cell culture medium was then collected and centrifuged. The supernatant was taken and the expression of Sema4D protein in the supernatant was detected using an ELISA kit (Shanghai Yuanmu Biotechnology Co., Ltd.).

[2] = system: OIR model mice; experiment: Fundus angiogenesis in OIR model (Isolectin B4, confocal); type: in vivo, mouse; conditions: for percentage of abnormal blood vessels in the total retinal area: 2 nmol injected into the vitreous on day 12, read on day 17; for treatment effect on fundus angiogenesis compared with BMA-12: 2 nmol vs 1 μg BMA-12, intravitreal
Procedure: Treatment group (OIR): After giving birth, 3-4 month old C57BL/6 mother mice were placed in an oxygen chamber with 75% oxygen together with 7 day old young mice, and the young mice and the mother mice were taken out on the 12th day of birth of the young mice. Immediately after the young mice were anesthetized, 2 nmol of FH, 2 nmol of FG, and 1 μg of Sema4D neutralizing antibody (BMA-12) (BMA-12, i.e., anti-Sema4D) were injected into the vitreous, and an equal volume of DMSO was used as a control. The young mice were then further raised in normal air for 5 days; the young mice were anesthetized on the 17th day of birth, and after cardiac perfusion with normal saline, the eyeballs were separated and then fixed, stained with Isolectin B4 overnight at 4° C., flatly spread on a glass slide, and photographed.
Control group (Normal): Young mice, grown with normoxia, were anesthetized on the 17th day of birth. After cardiac perfusion with normal saline, the eyeballs were taken out, and the retinas were peeled off and then fixed with 4% paraformaldehyde, stained with Isolectin B4 at 4° C. overnight, flatly spread on a glass slide, and photographed
Laser confocal was carried out to detect retinal angiogenesis, and ImageJ was carried out to calculate the ratio of retinal neovascularization clusters to the entire retinal area, that is, the proportion of new blood vessels. […] It can be seen in FIG. 4A that the treatment effect of FH is the best.

[3] = system: OIR model mice; experiment: Evans blue leakage test, fundus vascular leakage; type: in vivo, mouse; conditions: for vascular leakage of the fundus: 2 nmol injected into the vitreous; for treatment effect on vascular leakage compared with anti-Sema4D: 2 nmol vs 1 μg BMA-12, intravitreal
[4] = system: primary mouse brain microvascular pericytes; experiment: sSema4D-induced pericyte migration (transwell experiment); type: cell-based; conditions: 36 h; for sSema4D-induced pericyte migration: 20 μM, sSema4D 1600 ng/mL
Procedure: The primary mouse brain microvascular pericytes were starved with 0.5% PM for 4 to 6 h. The pericytes were seeded in the upper layer of a 24-well transwell chamber (8 μm). The medium containing FH (20 μM), FG (20 μM), and Sema4D neutralizing antibody (BMA-12) (2 μg/μL) (the concentration of sSema4D in the medium is 1600 ng/mL) was added to the lower chamber, and an equal volume of DMSO was added as control. The cells were incubated in a 5% CO2 incubator at 37° C. for 36 h. 36 h later, the cells on the bottom of the chamber were fixed with 4% paraformaldehyde and stained with crystal violet, and the pericytes that penetrated to the bottom of the chamber were counted under a microscope.

[5] = biological target: T1, sSema4D; experiment: ELISA of sSema4D in vitreous humor after eye drops; type: in vivo; parameters: from tissue; host or cells: vitreous humor of C57 mice; conditions: eye drops 10 μL of 20 μM, twice daily, 3 days
Source text: In this example, 8-week-old C57 male mice were used, with ten data points in each group, and each data point was the average of the experimental results of 5 mice.
The water on the eyeballs was then removed with filter paper to release and collect the vitreous humor. ELISA kit (Shanghai Yuanmu Biotechnology Co., Ltd.) was used to detect the expression of sSema4D protein in vitreous humor.
Control group was instilled with the same volume of PBS solution; vehicle group was instilled the same volume of artificial tears (Systane).

[6] = biological target: T1, sSema4D; experiment: Reduction of sSema4D concentration in a simple medium system (ELISA); type: biochemical; parameters: the free Sema4D protein after enzyme cleavage of Sema4D; purchased R&D Systems; conditions: for sSema4D concentration: medium with 1600 ng/mL sSema4D, FH, FG 20 μM, BMA-12 2 μg/μL
Procedure: The nano small peptides FH, FG, DMSO, and Sema4D neutralizing antibody (BMA-12) were added to the medium (the concentration of sSema4D in the medium was 1600 ng/mL) to ensure that the final concentration of FH and FG was 20 μM, and the final concentration of the Sema4D neutralizing antibody (BMA-12) (BMA-12, i.e., anti-Sema4D) was 2 μg/μL, an equal volume of DMSO was then added as a control, and culture plates were set still at 37° C. for 12, 24, 36, and 48 h, and the culture medium was collected, and the expression of Sema4D protein in the supernatant was detected using an ELISA kit (Shanghai Yuanmu Biotechnology Co., Ltd.).

Row | Compound | sSema4D concentration ([1]; 24 h, endothelial cells) | sSema4D concentration ([1]; 36 h, endothelial cells) | sustained reduction of sSema4D concentration ([1]; 20 μM) | effect on sSema4D concentration, FH compared with FG ([1]; endothelial cells, within the same action time, 20 μM) | percentage of abnormal blood vessels in the total retinal area [2] | treatment effect among groups in FIG. 4A ([2]; 2 nmol intravitreal) | treatment effect on fundus angiogenesis compared with BMA-12 [2] | vascular leakage of the fundus [3] | treatment effect on vascular leakage compared with anti-Sema4D [3] | inhibition of pericyte migration compared with BMA-12 ([4]; 20 μM vs BMA-12 2 μg/μL) | sSema4D-induced pericyte migration [4] | expression of sSema4D protein in the vitreous humor [5] | sSema4D concentration ([6]; 24 h) | sSema4D concentration ([6]; 36 h) | effect on sSema4D concentration, FH compared with FG ([6]; within the same action time, 20 μM)
1 | CCCCCCCCCCCCCCCC(=O)N[C@H](Cc1ccccc1)C(=O)N[C@@H](Cc1ccccc1)C(=O)N[C@H](C(=O)N[C@@H](CC(C)C)C(=O)N[C@@H](CCCCN)C(=O)N[C@@H](CCCCN)C(=O)N[C@@H](CCC(N)=O)C(=O)N[C@@H](CCCCN)C(=O)N[C@@H](CCCNC(=N)N)C(=O)N1CCC[C@H]1C(=O)N[C@@H](CCCNC(=N)N)C(=O)N[C@@H](Cc1c[nH]cn1)C(=O)O)C(C)C [FH] (Palmitoyl-[dF]FVLKKQKRPRH-OH) | can reduce the sSema4D concentration | can still reduce the sSema4D concentration | can sustainably reduce the concentration of sSema4D | better than that of FG | reduce the percentage of abnormal blood vessels in the total retinal area | the best | comparable to that of the Sema4D neutralizing antibody (BMA-12) | can inhibit vascular leakage of the fundus | comparable to that of anti-Sema4D | more effective in inhibiting pericyte migration than Sema4D neutralizing antibody (BMA-12) | can significantly inhibit the sSema4D-induce pericyte migration | reduce the expression of sSema4D protein in the vitreous humor | can reduce the sSema4D concentration | can still reduce the sSema4D concentration | better than that of FG
2 | Palmitoyl-FFVLKKNKAAKG [FG] |  |  | can sustainably reduce the concentration of sSema4D |  | reduce the percentage of abnormal blood vessels in the total retinal area |  | comparable to that of the Sema4D neutralizing antibody (BMA-12) | can inhibit vascular leakage of the fundus | comparable to that of anti-Sema4D |  | can significantly inhibit the sSema4D-induce pericyte migration | reduce the expression of sSema4D protein in the vitreous humor | can reduce the sSema4D concentration | can still reduce the sSema4D concentration | 
